IC50 data for one compound are collected here from patent publication US9718823B2, “2, 6-Di-nitrogen-containing substituted purine derivative, and preparation method, pharmaceutical composition and use thereof” (Zhejiang Medicine Co., Ltd. Xinchang Pharmaceutical Factory, priority 2013, dated 2017).

The experiment deals with U87MG human glioblastoma Multiforme cell strain. Briefly: Antitumor cell proliferation in vitro, CCK-8 detection kit, U87MG. In kind it is cell-based. The conditions noted are these: U-87 MG, 72 h, U-87MG cells, 1st and 2nd test where printed. As for the experimental part:
The half inhibitory concentration IC50 of proliferation of three kinds of tumor cell strain (U87MG, PC-3, BT474) for 12 candidate compounds of the present invention is detected by CCK-8 detection kits.
U87MG human glioblastoma Multiforme cell strain (cell bank of Chinese Academy of Sciences)
The studied compounds are dissolved by DMSO to make the final concentration 10 mM.
• a) Collecting the cells in logarithmic phase, counting, and resuspending the cells with complete medium. • b) Adjusting the concentration of cells to a suitable concentration, inoculating in 96 well plates, each well is inoculated to 100 μl cell suspension.
c) incubating cells for 24 hours in a 5% CO2 incubator at temperature of 37° C., under the condition of 100% relative humidity.
a) The cells in logarithmic phase is collected, counted, resuspended with complete medium. The concentration of cells is adjusted to a suitable concentration (determined in accordance with the optimizable test results of cell density), and the cells is inoculated in 96 well plates, wherein each well is inoculated 100 μl cell suspension, Cells are incubated for 24 hours in 5% CO2 incubator at temperature of 37° C. under the condition of 100% relative humidity.
b) The test compounds are diluted to 500 μM with culture medium, then diluted in series eight times. […] as 25 μl/well. The final concentrations of the compounds are diluted from 100 μM to 0 μM, with 4 times dilution, and there are a total of 10 concentration points.
c) Cells are incubated for 72 hours in 5% CO2 incubator at temperature of 37° C. under the condition of 100% relative humidity.
d) The culture medium is aspirated and discarded, and complete medium containing 10% CCK-8 is incubated in a incubator at 37° C. for 2˜4 hours.
e) After shocking gently, the absorbance of the culture medium is measured at 450 nm wavelength on SpectraMax M5 Microplate Reader, with the absorbance at 650 nm as reference, to calculate the inhibition rate.
On the technique in general: Formazan colour is commonly taken as a measure of viable cells.

Molecules are shown by their SMILES. Counter-ions that a name gives are not always drawn.

For orientation: IC50 means the concentration that gives 50% inhibition. Higher therefore signals weaker potency. `c1ccc(-c2ccnc3ccc(Nc4nc(NC5CC5)c5nc[nH]c5n4)cc23)cc1` [MED1007-91, N6-cyclopropyl-N2-(4-phenylquinoline-6-yl)-9H-purine-2,6-diammonium salt dihydrate di-methanesulfonate]: the IC50 worked out at 8.15 µM.
